We go through 22 compounds from US12441691B2 (Cytokinetics, Inc., priority 2020, dated 2025).

SMILES strings stand for the structures.

The assay deals with rabbit skeletal myofibrils (fast skeletal myofibrils). The assay can be described thus: Activation of fast skeletal myofibrils (PUMA assay, AC1.4). The assay is classed as biochemical. Conditions: calcium at pCa25, AC1.4 = concentration at which the compound increased the enzymatic activity. Summed up:
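In 12 mM PIPES pH 6.8 with 2 mM MgCl2 and 1 mM DTT, Triton-washed rabbit skeletal myofibrils were run at the pCa25 calcium level. Myosin-made ADP was recycled through a PK/LDH coupled system; NADH loss read at 340 nm.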
`CC[C@H](C)[C@H]1C(=O)Nc2ccccc2CN1C(=O)N[C@@H](C)C(=O)NC` [Compound 232, (S)-3-((S)-sec-butyl)-N-((S)-1-(methylamino)-1-oxopropan-2-yl)-2-oxo-1,2,3,5-tetrahydro-4H-benzo[e][1,4]diazepine-4-carboxamide]: the AC1.4 stood at 3.47 µM. As for `CC[C@H](C)[C@H]1C(=O)Nc2ccccc2CN1C(=O)N(C)c1cnccn1` [Compound 233, (S)-3-((S)-sec-butyl)-N-methyl-2-oxo-N-(pyrazin-2-yl)-1,2,3,5-tetrahydro-4H-benzo[e][1,4]diazepine-4-carboxamide], the AC1.4 worked out at 2.16 µM. The same measure for `CC[C@H](C)[C@H]1C(=O)Nc2ccccc2CN1C(=O)N1CCC(N(C)C)C1` (stereo partly drawn) [Compound 234, (3S)-3-((S)-sec-butyl)-4-(3-(dimethylamino)pyrrolidine-1-carbonyl)-1,3,4,5-tetrahydro-2H-benzo[e][1,4]diazepin-2-one]: 4.64 µM. For the compound `CC[C@H](C)[C@H]1C(=O)Nc2ccccc2CN1C(=O)N(C)C1CCN(C)C1` (stereo partly drawn) [Compound 235, (3S)-3-((S)-sec-butyl)-N-methyl-N-(1-methylpyrrolidin-3-yl)-2-oxo-1,2,3,5-tetrahydro-4H-benzo[e][1,4]diazepine-4-carboxamide], the AC1.4 is 1.45 µM.

`CC[C@H](C)[C@H]1C(=O)Nc2ccccc2CN1C(=O)N1CCC[C@H]1C(=O)O` [Compound 236, ((S)-3-((S)-sec-butyl)-2-oxo-2,3,4,5-tetrahydro-1H-benzo[e][1,4]diazepine-4-carbonyl)-L-proline]: the AC1.4 is 3.43 µM.

Take `CC[C@H](C)[C@H]1C(=O)Nc2ccccc2CN1C(=O)N(C)Cc1coc(C)n1` [Compound 237, (S)-3-((S)-sec-butyl)-N-methyl-N-((2-methyloxazol-4-yl)methyl)-2-oxo-1,2,3,5-tetrahydro-4H-benzo[e][1,4]diazepine-4-carboxamide]: the AC1.4 was determined as 1.86 µM. The same measure for `CC[C@H](C)[C@H]1C(=O)Nc2ccccc2CN1C(=O)N1CCCC(C(N)=O)C1` (stereo partly drawn) [Compound 238, 1-((S)-3-((S)-sec-butyl)-2-oxo-2,3,4,5-tetrahydro-1H-benzo[e][1,4]diazepine-4-carbonyl)piperidine-3-carboxamide]: 4.49 µM; for `CC[C@H](C)[C@H]1C(=O)Nc2ccccc2CN1C(=O)N1CCC(N(C)C)CC1` [Compound 239, (S)-3-((S)-sec-butyl)-4-(4-(dimethylamino)piperidine-1-carbonyl)-1,3,4,5-tetrahydro-2H-benzo[e][1,4]diazepin-2-one]: 1.65 µM. As to `CC[C@H](C)[C@H]1C(=O)Nc2ccccc2CN1C(=O)N(C)CCS(C)(=O)=O` [Compound 240, (S)-3-((S)-sec-butyl)-N-methyl-N-(2-(methylsulfonyl)ethyl)-2-oxo-1,2,3,5-tetrahydro-4H-benzo[e][1,4]diazepine-4-carboxamide], the AC1.4 stood at 2.87 µM. In the case of `CC[C@H](C)[C@H]1C(=O)Nc2ccccc2CN1C(=O)N1CCCn2c(C)nnc21` [Compound 241, (S)-3-((S)-sec-butyl)-4-(3-methyl-5,6,7,8-tetrahydro-[1,2,4]triazolo[4,3-a]pyrimidine-8-carbonyl)-1,3,4,5-tetrahydro-2H-benzo[e][1,4]diazepin-2-one], the AC1.4 was 1.35 µM. On to `CC[C@H](C)[C@H]1C(=O)Nc2ccccc2CN1C(=O)N1CCC(N(C)C(C)=O)C1` (stereo partly drawn) [Compound 242, N-(1-((S)-3-((S)-sec-butyl)-2-oxo-2,3,4,5-tetrahydro-1H-benzo[e][1,4]diazepine-4-carbonyl)pyrrolidin-3-yl)-N-methylacetamide], for which the AC1.4 is 4.30 µM.

In the case of `CC[C@H](C)[C@H]1C(=O)Nc2ccccc2CN1C(=O)N1CCN(C(=O)OC)CC1` [Compound 243, methyl 4-((S)-3-((S)-sec-butyl)-2-oxo-2,3,4,5-tetrahydro-1H-benzo[e][1,4]diazepine-4-carbonyl)piperazine-1-carboxylate], the AC1.4 was 1.93 µM. The same measure for `CC[C@H](C)[C@H]1C(=O)Nc2ccccc2CN1C(=O)N1CCCC1c1nc(C)no1` (stereo partly drawn) [Compound 244, (3S)-3-((S)-sec-butyl)-4-(2-(3-methyl-1,2,4-oxadiazol-5-yl)pyrrolidine-1-carbonyl)-1,3,4,5-tetrahydro-2H-benzo[e][1,4]diazepin-2-one]: 2.43 µM. `CC[C@H](C)[C@H]1C(=O)Nc2ccccc2CN1C(=O)N1CCC2(CC1)CNC(=O)C2` [Compound 245, (S)-3-((S)-sec-butyl)-4-(3-oxo-2,8-diazaspiro[4.5]decane-8-carbonyl)-1,3,4,5-tetrahydro-2H-benzo[e][1,4]diazepin-2-one]: the AC1.4 came to 3.88 µM.

On to `CC[C@H](C)[C@H]1C(=O)Nc2ccccc2CN1C(=O)N1CCN(S(C)(=O)=O)CC1` [Compound 246, (S)-3-((S)-sec-butyl)-4-(4-(methylsulfonyl)piperazine-1-carbonyl)-1,3,4,5-tetrahydro-2H-benzo[e][1,4]diazepin-2-one], for which the AC1.4 was determined as 1.64 µM.

As for `CC[C@H](C)[C@H]1C(=O)Nc2ccccc2CN1C(=O)N1CCC[C@H](NS(C)(=O)=O)C1` [Compound 247, N-((S)-1-((S)-3-((S)-sec-butyl)-2-oxo-2,3,4,5-tetrahydro-1H-benzo[e][1,4]diazepine-4-carbonyl)piperidin-3-yl)methanesulfonamide], the AC1.4 was 2.49 µM.

Regarding `CC[C@H](C)[C@H]1C(=O)Nc2ccccc2CN1C(=O)N1CCC[C@@H](NS(C)(=O)=O)C1` [Compound 248, N-((R)-1-((S)-3-((S)-sec-butyl)-2-oxo-2,3,4,5-tetrahydro-1H-benzo[e][1,4]diazepine-4-carbonyl)piperidin-3-yl)methanesulfonamide], the AC1.4 is 3.71 µM. With `CC[C@H](C)[C@H]1C(=O)Nc2ccccc2CN1C(=O)N1CC(C(=O)O)C1` [Compound 249, 1-((S)-3-((S)-sec-butyl)-2-oxo-2,3,4,5-tetrahydro-1H-benzo[e][1,4]diazepine-4-carbonyl)azetidine-3-carboxylic acid], the AC1.4 is 4.51 µM. Then `CC[C@H](C)[C@H]1C(=O)Nc2ccccc2CN1C(=O)N1CC(C(N)=O)C1` [Compound 250, 1-((S)-3-((S)-sec-butyl)-2-oxo-2,3,4,5-tetrahydro-1H-benzo[e][1,4]diazepine-4-carbonyl)azetidine-3-carboxamide], with 0.60 µM; and `CC[C@H](C)[C@H]1C(=O)Nc2ccccc2CN1C(=O)Nc1nncs1` [Compound 251, (S)-3-((S)-sec-butyl)-2-oxo-N-(1,3,4-thiadiazol-2-yl)-1,2,3,5-tetrahydro-4H-benzo[e][1,4]diazepine-4-carboxamide], with 0.08 µM; and `CC[C@H](C)[C@H]1C(=O)Nc2ccccc2CN1C(=O)N[C@@H](C(N)=O)c1ccccc1` [Compound 252, (S)-N-((R)-2-amino-2-oxo-1-phenylethyl)-3-((S)-sec-butyl)-2-oxo-1,2,3,5-tetrahydro-4H-benzo[e][1,4]diazepine-4-carboxamide], with 0.44 µM. Then `CC[C@H](C)[C@H]1C(=O)Nc2ccccc2CN1C(=O)Nc1ccc(=O)n(CC)c1` [Compound 253, (S)-3-((S)-sec-butyl)-N-(1-ethyl-6-oxo-1,6-dihydropyridin-3-yl)-2-oxo-1,2,3,5-tetrahydro-4H-benzo[e][1,4]diazepine-4-carboxamide], with 0.08 µM.
